Source: PMC13059705, “Peptidoglycan DD-peptidases have distinct activities that impact fitness of Acinetobacter baumannii” (mBio, 2026)

Key:
PBP6b = target: T1, PBP6b (Acinetobacter baumannii, UniProt A0ABX6CI93); test: bocillin-binding assay with SDS-PAGE; settings: covalent; labelled compound; used to confirm identity of the purified protein
T1 construct: gene dacD; Triton X-100 extraction, Ni-NTA
T1 sequence (A0ABX6CI93 22-439): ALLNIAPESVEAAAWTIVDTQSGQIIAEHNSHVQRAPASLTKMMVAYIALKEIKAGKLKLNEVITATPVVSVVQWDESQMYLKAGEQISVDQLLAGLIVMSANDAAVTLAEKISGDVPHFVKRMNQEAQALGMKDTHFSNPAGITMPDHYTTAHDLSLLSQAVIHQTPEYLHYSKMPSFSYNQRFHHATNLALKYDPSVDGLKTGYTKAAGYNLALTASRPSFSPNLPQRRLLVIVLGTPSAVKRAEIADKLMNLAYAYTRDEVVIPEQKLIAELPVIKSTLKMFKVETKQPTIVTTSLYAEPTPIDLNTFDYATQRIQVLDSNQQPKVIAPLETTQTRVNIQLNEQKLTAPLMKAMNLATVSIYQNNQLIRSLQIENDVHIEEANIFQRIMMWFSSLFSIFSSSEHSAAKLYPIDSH

PBP5/6a = target: T2, PBP5/6a (Acinetobacter baumannii, UniProt G1C735); test: bocillin-binding assay with SDS-PAGE; settings: covalent; labelled compound; used to confirm identity of the purified protein
T2 construct: gene dacC; Triton X-100 extraction, Ni-NTA
T2 sequence (G1C735 20-382): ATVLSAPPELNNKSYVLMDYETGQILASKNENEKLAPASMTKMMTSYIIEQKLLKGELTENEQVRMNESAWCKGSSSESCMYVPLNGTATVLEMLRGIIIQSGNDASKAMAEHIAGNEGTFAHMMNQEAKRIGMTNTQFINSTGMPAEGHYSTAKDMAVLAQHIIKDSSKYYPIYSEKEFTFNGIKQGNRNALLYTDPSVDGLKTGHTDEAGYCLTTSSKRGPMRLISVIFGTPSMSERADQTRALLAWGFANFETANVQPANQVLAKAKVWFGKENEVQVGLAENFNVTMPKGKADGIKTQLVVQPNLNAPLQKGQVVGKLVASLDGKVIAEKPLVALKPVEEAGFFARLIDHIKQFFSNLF

Cc1cc(C)n2c1C=C1C=CC(CCC(=O)Nc3ccc(OCC(=O)N[C@@H]4C(=O)N5[C@@H]4SC(C)(C)[C@@H]5C(=O)O)cc3)=[N+]1[B-]2(F)F [bocillin]
bocillin-binding assay with SDS-PAGE (PBP6b): Protein purity and identity were confirmed by SDS-PAGE and bocillin-binding assays
bocillin-binding assay with SDS-PAGE (PBP5/6a): Protein purity and identity were confirmed by SDS-PAGE and bocillin-binding assays
